Results reported in ChEMBL document CHEMBL5620379, “Discovery, SAR and mechanistic studies of quinazolinone-based acetamide derivatives in experimental visceral leishmaniasis” (Eur J Med Chem, 2023).
pIC50: −log10 of the molar value.

How the values were obtained:
J774 [1] = test: Cytotoxicity against mouse J774 cells at 25 uM incubated for 72 hrs by MTT assay relative to control; format: toxicity, cell-based; conditions: j774, 72 h
J774 [2] = test: Cytotoxicity against mouse J774 cells at 50 uM incubated for 72 hrs by MTT assay relative to control; format: toxicity, cell-based; conditions: j774, 72 h
J774 [3] = test: Cytotoxicity against mouse J774 cells at 12.5 uM incubated for 72 hrs by MTT assay relative to control; format: toxicity, cell-based; conditions: j774, 72 h
Leishmania donovani [4] = test: Antileishmanial activity against Leishmania donovani promastigotes at 25 uM measured after 48 hrs by MTT assay relative to control; format: functional
Leishmania donovani [5] = test: Antileishmanial activity against Leishmania donovani amastigotes infected in J774 macrophage assessed as inhibition of parasite growth at 25 uM incubated for 48 hrs by luciferase assay relative to control; format: functional; set-up: scale not given: the % may be the effect or the level left
J774 [6] = test: Cytotoxicity against mouse J774 macrophage incubated for 72 hrs by MTT assay; format: functional
Leishmania donovani [7] = test: Antileishmanial activity against Leishmania donovani promastigotes measured after 48 hrs by MTT assay; format: functional, organism-based
[8] = Selectivity index, ratio of CC50 for mouse J774 macrophage to IC50 for Leishmania donovani amastigotes infected in J774 macrophage; format: toxicity; conditions: J774 macrophages, read-out: Ratio CC50/IC50
Leishmania donovani [9] = test: Antileishmanial activity against Leishmania donovani amastigotes infected in J774 macrophage assessed as inhibition of parasite growth incubated for 48 hrs by luciferase assay; format: functional, organism-based; conditions: J774, 48 h

Structure (SMILES): CC(C)c1ccc(NC(=O)COc2ccc(-c3nc4ccccc4c(=O)n3C)cc2)cc1
- Activity (J774 [1]): 67.4%
- Activity (J774 [2]): 49.31%
- Activity (J774 [3]): 69.76%

Structure (SMILES): Cn1c(-c2ccc(OCC(=O)Nc3ccc4c(c3)CCC4)cc2)nc2ccccc2c1=O
- Activity (Leishmania donovani [4]): 79.73%
- Activity (J774 [1]): 53.88%
- Activity (Leishmania donovani [5]): 78.87%
- CC50 (J774 [6]): 31.7 µM
- Activity (J774 [2]): 36.13%
- pIC50 (Leishmania donovani [7]): 5.08
- selectivity ratio [8]: 5.09
- pIC50 (Leishmania donovani [9]): 5.21
- Activity (J774 [3]): 87.89%

Structure (SMILES): Cn1c(-c2ccc(OCC(=O)Nc3ccncc3)cc2)nc2ccccc2c1=O
- Activity (J774 [1]): 51.89%
- Activity (J774 [2]): 40.96%
- Activity (J774 [3]): 71.91%

Structure (SMILES): COc1cc(NC(=O)COc2ccc(-c3nc4ccccc4c(=O)n3C)cc2)cc(OC)c1OC
- Activity (J774 [1]): 51.67%
- Activity (J774 [2]): 39.78%
- Activity (J774 [3]): 69.04%

Structure (SMILES): Cn1c(-c2cccc(OCC(=O)Nc3cccc(C(F)(F)F)c3)c2)nc2ccccc2c1=O
- Activity (J774 [1]): 53.5%
- Activity (J774 [2]): 36.03%
- Activity (J774 [3]): 69.23%

Structure (SMILES): COc1ccc(NC(=O)COc2ccc(-c3nc4ccccc4c(=O)n3C)cc2)cc1
- Activity (J774 [1]): 78.71%
- CC50 (J774 [6]): 39.2 µM
- Activity (J774 [2]): 35.93%
- pIC50 (Leishmania donovani [7]): 4.85
- selectivity ratio [8]: 1.5
- pIC50 (Leishmania donovani [9]): 4.58
- Activity (J774 [3]): 83.71%

Structure (SMILES): CCn1c(-c2ccc(OCC(=O)Nc3ccc(C)cc3)cc2)nc2ccccc2c1=O
- Activity (J774 [1]): 68.99%
- CC50 (J774 [6]): 40.9 µM
- Activity (J774 [2]): 37.91%
- pIC50 (Leishmania donovani [7]): 5.07
- selectivity ratio [8]: 4.03
- pIC50 (Leishmania donovani [9]): 4.99
- Activity (J774 [3]): 85.97%

Structure (SMILES): CCn1c(-c2ccc(OCC(=O)Nc3ccccn3)cc2)nc2ccccc2c1=O
- Activity (J774 [1]): 79.09%
- CC50 (J774 [6]): 39.5 µM
- Activity (J774 [2]): 38.97%
- pIC50 (Leishmania donovani [7]): 4.62
- selectivity ratio [8]: 1.45
- pIC50 (Leishmania donovani [9]): 4.57
- Activity (J774 [3]): 84.82%

Structure (SMILES): Cn1c(-c2ccc(OCC(=O)Nc3ccc(Cl)cc3)cc2)nc2ccccc2c1=O
- Activity (J774 [1]): 81.59%
- CC50 (J774 [6]): 61.8 µM
- Activity (J774 [2]): 58.88%
- pIC50 (Leishmania donovani [7]): 4.79
- selectivity ratio [8]: 2.78
- pIC50 (Leishmania donovani [9]): 4.65
- Activity (J774 [3]): 85.35%

Structure (SMILES): Cc1ccc(NC(=O)COc2ccc(-c3nc4ccccc4c(=O)n3C)cc2)cc1
- Activity (J774 [1]): 81.98%
- CC50 (J774 [6]): 50.7 µM
- Activity (J774 [2]): 49.93%
- pIC50 (Leishmania donovani [7]): 4.66
- selectivity ratio [8]: 2.07
- pIC50 (Leishmania donovani [9]): 4.61
- Activity (J774 [3]): 85.59%

Structure (SMILES): COc1ccc(NC(=O)COc2ccc(-c3nc4ccccc4c(=O)n3C)cc2)cc1OC
- Activity (J774 [1]): 67.45%
- CC50 (J774 [6]): 37 µM
- Activity (J774 [2]): 37.47%
- pIC50 (Leishmania donovani [7]): 5.10
- selectivity ratio [8]: 3.53
- pIC50 (Leishmania donovani [9]): 4.98
- Activity (J774 [3]): 83.52%

Structure (SMILES): COc1ccc(NC(=O)COc2cccc(-c3nc4ccccc4c(=O)n3C)c2)cc1
- Activity (J774 [1]): 52.92%
- Activity (J774 [2]): 29.78%
- Activity (J774 [3]): 64.08%

Structure (SMILES): Cn1c(-c2ccc(OCC(=O)Nc3ccc4c(c3)OCO4)cc2)nc2ccccc2c1=O
- Activity (J774 [1]): 78.08%
- CC50 (J774 [6]): 48.5 µM
- Activity (J774 [2]): 45.89%
- pIC50 (Leishmania donovani [7]): 4.76
- selectivity ratio [8]: 2.25
- pIC50 (Leishmania donovani [9]): 4.67
- Activity (J774 [3]): 85.01%

Structure (SMILES): Cc1ccc(NC(=O)COc2ccc(-c3nc4ccccc4c(=O)n3C)cc2)cc1Cl
- Activity (J774 [1]): 52.13%
- Activity (J774 [2]): 47.78%
- Activity (J774 [3]): 68.41%

Structure (SMILES): CCn1c(-c2ccc(OCC(=O)Nc3ccc(F)cc3)cc2)nc2ccccc2c1=O
- Activity (J774 [1]): 43.73%
- Activity (J774 [2]): 34.39%
- Activity (J774 [3]): 59.51%

Structure (SMILES): CCn1c(-c2ccc(OCC(=O)Nc3ccc(OC)cc3)cc2)nc2ccccc2c1=O
- Activity (J774 [1]): 62.11%
- Activity (J774 [2]): 43.01%
- Activity (J774 [3]): 67.45%

Structure (SMILES): Cc1ccc(NC(=O)COc2cccc(-c3nc4ccccc4c(=O)n3C)c2)cc1
- Activity (J774 [1]): 41.69%
- Activity (J774 [2]): 31.44%
- Activity (J774 [3]): 65.55%

Structure (SMILES): Cc1ccc(NC(=O)COc2ccc(-c3nc4ccccc4c(=O)n3C)cc2)cc1C
- Activity (J774 [1]): 46.38%
- Activity (J774 [2]): 31.465%
- Activity (J774 [3]): 67.4%

Structure (SMILES): Cn1c(-c2ccc(OCC(=O)Nc3cccc4cccnc34)cc2)nc2ccccc2c1=O
- Activity (J774 [1]): 76.21%
- CC50 (J774 [6]): 42.7 µM
- Activity (J774 [2]): 42.14%
- pIC50 (Leishmania donovani [7]): 4.79
- selectivity ratio [8]: 2.32
- pIC50 (Leishmania donovani [9]): 4.73
- Activity (J774 [3]): 82.65%

Structure (SMILES): CCn1c(-c2ccc(OCC(=O)Nc3cccc(C(F)(F)F)c3)cc2)nc2ccccc2c1=O
- Activity (J774 [1]): 77.31%
- CC50 (J774 [6]): 45 µM
- Activity (J774 [2]): 47.72%
- pIC50 (Leishmania donovani [7]): 4.70
- selectivity ratio [8]: 2.15
- pIC50 (Leishmania donovani [9]): 4.68
- Activity (J774 [3]): 87.75%

Structure (SMILES): Cn1c(-c2ccc(OCC(=O)Nc3ccccc3)cc2)nc2ccccc2c1=O
- Activity (J774 [1]): 78.47%
- CC50 (J774 [6]): 43.2 µM
- Activity (J774 [2]): 42.62%
- pIC50 (Leishmania donovani [7]): 4.75
- selectivity ratio [8]: 1.91
- pIC50 (Leishmania donovani [9]): 4.65
- Activity (J774 [3]): 87.94%

Structure (SMILES): Cn1c(-c2ccc(OCC(=O)Nc3cccc(C(F)(F)F)c3)cc2)nc2ccccc2c1=O
- Activity (J774 [1]): 78.66%
- CC50 (J774 [6]): 47.7 µM
- Activity (J774 [2]): 48.49%
- pIC50 (Leishmania donovani [7]): 4.91
- selectivity ratio [8]: 2.17
- pIC50 (Leishmania donovani [9]): 4.66
- Activity (J774 [3]): 86.45%

Structure (SMILES): CCn1c(-c2ccc(OCC(=O)Nc3ccc(Cl)cc3)cc2)nc2ccccc2c1=O
- Activity (J774 [1]): 47.53%
- Activity (J774 [2]): 32.52%
- Activity (J774 [3]): 67.21%

Structure (SMILES): Cn1c(-c2ccc(OCC(=O)Nc3ccc(F)cc3)cc2)nc2ccccc2c1=O
- Activity (J774 [1]): 69.62%
- CC50 (J774 [6]): 41.6 µM
- Activity (J774 [2]): 38.87%
- pIC50 (Leishmania donovani [7]): 5.10
- selectivity ratio [8]: 3.62
- pIC50 (Leishmania donovani [9]): 4.94
- Activity (J774 [3]): 82.8%

Structure (SMILES): Cn1c(-c2cccc(OCC(=O)Nc3ccc(Cl)cc3)c2)nc2ccccc2c1=O
- Activity (J774 [1]): 71.35%
- CC50 (J774 [6]): 54.1 µM
- Activity (J774 [2]): 55.23%
- pIC50 (Leishmania donovani [7]): 5.04
- selectivity ratio [8]: 4.54
- pIC50 (Leishmania donovani [9]): 4.92
- Activity (J774 [3]): 84.53%

Structure (SMILES): Cn1c(-c2ccc(OCC(=O)Nc3ccc(C(C)(C)C)cc3)cc2)nc2ccccc2c1=O
- Activity (J774 [1]): 55.66%
- Activity (J774 [2]): 26.84%
- Activity (J774 [3]): 59.75%

Structure (SMILES): Cn1c(-c2ccc(OCC(=O)Nc3ccccn3)cc2)nc2ccc(Cl)cc2c1=O
- Activity (J774 [1]): 59.37%
- Activity (J774 [2]): 39.88%
- Activity (J774 [3]): 65.58%

Structure (SMILES): Cn1c(-c2cccc(OCC(=O)Nc3ccc(F)cc3)c2)nc2ccccc2c1=O
- Activity (J774 [1]): 56.86%
- Activity (J774 [2]): 31.32%
- Activity (J774 [3]): 66.92%

Structure (SMILES): CCc1ccc(NC(=O)COc2ccc(-c3nc4ccccc4c(=O)n3C)cc2)cc1
- Activity (J774 [1]): 79.14%
- CC50 (J774 [6]): 38.1 µM
- Activity (J774 [2]): 33.38%
- pIC50 (Leishmania donovani [7]): 4.82
- selectivity ratio [8]: 1.89
- pIC50 (Leishmania donovani [9]): 4.70
- Activity (J774 [3]): 81.78%

Structure (SMILES): Cn1c(-c2ccc(OCC(=O)Nc3ccc([N+](=O)[O-])cc3)cc2)nc2ccccc2c1=O
- Activity (J774 [1]): 80.58%
- CC50 (J774 [6]): 54.4 µM
- Activity (J774 [2]): 55.85%
- pIC50 (Leishmania donovani [7]): 4.73
- selectivity ratio [8]: 2.45
- pIC50 (Leishmania donovani [9]): 4.65
- Activity (J774 [3]): 84.05%

Structure (SMILES): Cn1c(-c2ccc(OCC(=O)Nc3ccccn3)cc2)nc2cc(F)ccc2c1=O
- Activity (J774 [1]): 58.74%
- CC50 (J774 [6]): 35.1 µM
- Activity (J774 [2]): 30.36%
- pIC50 (Leishmania donovani [7]): 5.20
- selectivity ratio [8]: 3.82
- pIC50 (Leishmania donovani [9]): 5.04
- Activity (J774 [3]): 85.3%
